# Source: patent publication US9808448B2, “Pharmaceutical compounds and use of same in cancer and tauopathies” (THE REGENTS OF THE UNIVERSITY OF MICHIGAN, priority 2013, dated 2017)
# Entries after “also recorded” stand apart in the source; their conditions may differ.
# What was measured:
# human Hsc70 = target: T1, human Hsc70 (Homo sapiens, UniProt P11142); experiment: Binding of tau to immobilized human Hsc70; format: biochemical
# T1 construct: made in house
# Protocol: (§1) Next, the effect of chaperone functions by binding of YM-08 to Hsp70 was investigated. […] This profile is shared with other allosteric Hsp70 inhibitors. As another test of chaperone function, the effects of the compounds on the binding of Hsp70 to a misfolded protein were measured. In previous work, MKT-077 stabilized the interaction between prokaryotic Hsp70 (DnaK) and denatured luciferase. Briefly, this assay involves immobilizing unfolded luciferase in microtiter plates and measuring binding to DnaK. […] To explore whether YM-08 might also enhance binding of Hsp70 to a more physiologically relevant substrate, binding of tau to immobilized human Hsc70 was measured.
# (§2) Binding of prokaryotic Hsp70 (DnaK) to denatured luciferase was measured as previously described, in e.g., Miyata, et al., J. Biomol. Screen, 15:1211-1219 (2010). Briefly, firefly luciferase (0.2 mg/mL) was proteolyzed with trypsin and immobilized in 96-well microtiter plates. After washing, the binding of luciferase to DnaK (500 nM) was measured using an anti-DnaK antibody and HRP secondary antibody. A similar strategy was used to monitor binding of human Hsc70 to tau, as previously described in Thompson, et al., ACS Chem. Biol., 7:1677-1686 (2012).
# [1] = target: prokaryotic Hsp70 (DnaK) binding to denatured luciferase (Escherichia coli, UniProt P0A6Y8); experiment: Luciferase binding assay; format: biochemical; settings: 50 μM
# Protocol: as §1, §2
# human Hsc70 (HSPA8) = target: T2, human Hsc70 (HSPA8) (Homo sapiens, UniProt P11142); experiment: ELISA competitive binding assay (biotinylated MKT-077 displacement); settings: competitive ELISA, biotin labeled MKT-077 1 μM
# T2 construct: made in house
# Protocol: Binding of MKT-077 analogs to immobilized Hsp70 was evaluated using a competitive ELISA. In this established assay, a biotinylated version of MKT-077 is bound to immobilized human Hsc70 (HSPA8) and potential competitors are tested for their ability to block the interaction.
# A sample of Hsc70 (50 μL; 0.06 mg/mL) was immobilized in clear flat-bottom 96-well plate in MES buffer (50 mM 2-(N-morpholino)ethanesulfonic acid, pH 5.2) at 37° C. overnight. After discarding the excess protein solution, each well was washed three times with 150 μL TBS-T buffer (25 mM Tris, 140 mM NaCl, 2.7 mM KCl, 0.01% Tween-20, pH 7.4). Then, 1 μL of compound (1% DMSO) was diluted into 24 μL of binding buffer (100 mM Tris, 20 mM KCl, 6 mM MgCl2, 0.01% Triton-X100) and incubated at room temperature for 30 min. Biotin labeled MKT-077 (final concentration 1 μM; 25 μL) was subsequently added into each well and the mixture was incubated at room temperature for another 3 hrs. The wells were washed with 150 μL TBS-T buffer three times prior to blocking with 100 μL 3% bovine serum albumin (BSA) in TBS-T buffer for 5 min at room temperature. After the removal of the BSA solution, 50 μL of HRP-streptavidin (Pierce Biotechnology, 1:50000 TBS-T dilution) solution was added and the plates were incubated at room temperature for 1 hr. The HRP-streptavidin solution was removed and wells were washed three times with 150 μL TBS-T. […] substrate (Cell Signaling Technology 100 μL) was added into each well and incubated at room temperature until a visible blue color was shown in wells (about 20 min). 1 M HCl stop solution was then added into each well to yield a yellow solution and the absorbance at 450 nm was recorded on SpectraMax M5 (Molecular Devices).
# [2] = t1/2 in tau activity screen table; format: in vitro ADME; settings: liver microsomes; matrix not stated
# [3] = test system: stress inducible Hsp72 (HSPA1); experiment: Stress response in treated HeLaC3 cell lysates; format: cell-based, human
# [4] = test system: human 4R0N tau in HeLaC3 cells; experiment: Tau levels in HeLaC3 cells by Western blot; format: cell-based
# Protocol: To determine whether YM-08 might also accelerated tau degradation, HeLaC3 cells, which stably over-express human 4R0N tau, were treated with compound. After 24 hours, the levels of phosphorylated (p396/404) tau and total tau were measured by Western blot. […] This cellular activity is not as dramatic as that of MKT-077, which reduced tau levels by >80% at 30 μM (FIG. 4D); however, reducing tau by only about 50% is predicted to provide benefits in some AD models.
# [5] = Liver microsome stability; format: in vitro ADME; settings: human, liver microsomes
# [6] = target: yeast Hsp70 (Ssa1p) and Hlj1p (Saccharomyces cerevisiae, UniProt P10591); experiment: Single turnover ATPase assay; format: biochemical
# Protocol: as §1
# Single turnover ATPase assays were performed as previously described in, e.g., Fewell, et al., J. Biol. Chem., 279:51131-51140 (2004), and Chiang, et al., Bioorg. Med. Chem., 17:1527-1533 (2009). Briefly, the yeast Hsp70, Ssa1p (about 0.2 μM), was prebound to α-[32P]ATP. The hydrolysis of ATP in the presence or absence of an equimolar amount of Hlj1 was measured by monitoring the generation of α-[32P]ADP by thin layer chromatography (TLC).
# [7] = Solubility in dosing vehicle; format: physicochemical
# Protocol: (A) Initial pharmacokinetics and biodistribution of YM-01 and YM-08. Compounds were suspended in buffered saline (YM-01) or 10% DMSO/saline (YM-08) and injected at 20 and 10 mg/kg, respectively. YM-08 was not soluble in saline or 10% DMSO/saline at 20 mg/kg. The levels of YM-08 in the brain at 1 hr after injection could not be accurately determined because its value was outside the calibration curve. […] Results are average from data acquired from three female mice. (C) YM-08 maintains a B/P ratio of nearly 0.25 for 18 hrs.
# The initial pharmacokinetics (PK) of YM-01 and YM-08 were tested in CD1 mice. […] After a single 6.6 mg/kg dose delivered i.v., the peak brain concentration of YM-08 was 4 μg/g (FIG. 7B) and the ratio in the brain:plasma (B/P) ratio was approximately 0.25 for 18 hrs (FIG. 7C). […] It is not yet clear how much tau levels need to be reduced to achieve therapeutic effects in disease models, but the area-under-the-curve (AUCinf) for YM-08 in the brain was 0.26 μg·hr/g and the AUCinf in plasma was 13.6 μg·hr/mL.
# Sequence of yeast Hsp70 (Ssa1p) and Hlj1p (P10591 whole entry): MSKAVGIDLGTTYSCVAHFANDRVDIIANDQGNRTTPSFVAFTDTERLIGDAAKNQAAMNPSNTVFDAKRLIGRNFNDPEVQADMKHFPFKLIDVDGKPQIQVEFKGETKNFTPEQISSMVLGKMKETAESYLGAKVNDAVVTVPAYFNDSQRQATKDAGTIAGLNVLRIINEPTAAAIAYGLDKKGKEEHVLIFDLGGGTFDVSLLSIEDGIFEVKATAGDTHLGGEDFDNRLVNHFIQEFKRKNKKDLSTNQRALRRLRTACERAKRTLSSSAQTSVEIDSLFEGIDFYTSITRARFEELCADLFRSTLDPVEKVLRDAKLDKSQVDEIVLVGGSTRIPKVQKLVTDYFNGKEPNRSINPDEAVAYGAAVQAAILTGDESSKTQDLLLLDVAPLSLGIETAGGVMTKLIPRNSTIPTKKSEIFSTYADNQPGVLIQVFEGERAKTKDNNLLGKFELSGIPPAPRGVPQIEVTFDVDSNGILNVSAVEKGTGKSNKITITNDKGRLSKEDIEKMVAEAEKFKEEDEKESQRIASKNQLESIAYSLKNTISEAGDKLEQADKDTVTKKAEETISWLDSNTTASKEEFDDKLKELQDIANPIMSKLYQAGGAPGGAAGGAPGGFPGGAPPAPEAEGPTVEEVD
# T1 sequence (P11142 2-646): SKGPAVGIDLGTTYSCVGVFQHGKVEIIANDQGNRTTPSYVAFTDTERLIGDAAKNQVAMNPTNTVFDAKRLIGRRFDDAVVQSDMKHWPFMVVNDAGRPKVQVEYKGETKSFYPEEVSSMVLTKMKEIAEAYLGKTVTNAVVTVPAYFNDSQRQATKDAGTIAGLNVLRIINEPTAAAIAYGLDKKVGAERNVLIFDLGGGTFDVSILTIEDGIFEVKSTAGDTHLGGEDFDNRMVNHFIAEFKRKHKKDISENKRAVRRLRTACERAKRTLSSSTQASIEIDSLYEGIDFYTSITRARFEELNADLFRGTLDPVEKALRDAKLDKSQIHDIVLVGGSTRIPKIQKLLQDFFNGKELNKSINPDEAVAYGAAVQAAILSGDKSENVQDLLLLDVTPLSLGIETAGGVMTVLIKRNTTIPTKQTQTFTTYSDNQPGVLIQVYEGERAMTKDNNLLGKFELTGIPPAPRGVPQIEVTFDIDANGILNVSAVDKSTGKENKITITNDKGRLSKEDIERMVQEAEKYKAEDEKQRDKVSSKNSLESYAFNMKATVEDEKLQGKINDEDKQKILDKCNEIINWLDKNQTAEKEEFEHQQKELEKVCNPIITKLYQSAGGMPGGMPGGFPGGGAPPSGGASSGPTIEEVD
# Sequence of prokaryotic Hsp70 (DnaK) binding to denatured luciferase (P0A6Y8 whole entry): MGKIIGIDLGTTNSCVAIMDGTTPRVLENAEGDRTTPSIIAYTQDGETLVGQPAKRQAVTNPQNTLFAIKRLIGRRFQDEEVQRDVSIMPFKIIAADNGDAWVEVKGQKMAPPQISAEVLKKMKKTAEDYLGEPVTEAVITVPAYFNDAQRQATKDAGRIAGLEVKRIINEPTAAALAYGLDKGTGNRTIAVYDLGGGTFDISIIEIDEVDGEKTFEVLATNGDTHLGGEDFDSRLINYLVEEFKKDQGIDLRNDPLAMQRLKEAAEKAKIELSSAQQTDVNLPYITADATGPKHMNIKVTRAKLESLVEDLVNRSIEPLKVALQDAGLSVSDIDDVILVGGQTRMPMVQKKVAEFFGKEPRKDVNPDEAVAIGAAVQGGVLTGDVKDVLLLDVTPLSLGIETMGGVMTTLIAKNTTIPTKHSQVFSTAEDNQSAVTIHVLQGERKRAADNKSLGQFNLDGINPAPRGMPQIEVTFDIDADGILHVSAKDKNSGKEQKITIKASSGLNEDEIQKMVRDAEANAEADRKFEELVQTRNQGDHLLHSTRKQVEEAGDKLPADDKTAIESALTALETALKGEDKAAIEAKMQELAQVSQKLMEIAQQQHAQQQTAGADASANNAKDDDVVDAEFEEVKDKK
# T2 sequence (P11142 whole entry): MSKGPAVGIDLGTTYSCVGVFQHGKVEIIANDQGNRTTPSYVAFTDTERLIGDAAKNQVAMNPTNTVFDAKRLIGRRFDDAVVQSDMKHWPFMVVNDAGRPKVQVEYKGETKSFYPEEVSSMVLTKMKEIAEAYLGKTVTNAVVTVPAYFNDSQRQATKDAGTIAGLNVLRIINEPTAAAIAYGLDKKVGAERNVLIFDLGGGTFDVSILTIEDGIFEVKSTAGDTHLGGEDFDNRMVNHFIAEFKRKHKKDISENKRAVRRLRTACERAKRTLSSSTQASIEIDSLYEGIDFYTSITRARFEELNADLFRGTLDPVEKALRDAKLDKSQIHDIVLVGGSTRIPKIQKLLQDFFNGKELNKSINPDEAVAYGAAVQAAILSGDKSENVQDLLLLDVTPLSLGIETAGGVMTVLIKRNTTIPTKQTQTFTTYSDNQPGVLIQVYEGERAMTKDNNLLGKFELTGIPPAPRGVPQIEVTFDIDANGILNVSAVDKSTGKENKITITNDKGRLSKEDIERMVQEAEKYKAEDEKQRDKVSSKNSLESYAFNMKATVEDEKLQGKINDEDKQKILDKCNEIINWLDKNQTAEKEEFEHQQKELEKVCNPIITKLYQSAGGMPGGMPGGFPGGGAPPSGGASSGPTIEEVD
smiles,measurement,setting,value
"CCn1c(=O)/c(=C2\Sc3ccccc3N2C)s/c1=C\c1ccccn1 [YM-08, (2Z,5E)-3-ethyl-5-(3-methylbenzo[d]thiazol-2(3H)-ylidene)-2-(pyridin-2-ylmethylene)thiazolidin-4-one]",affinity of chaperone for tau substrate,human Hsc70,enhanced the affinity
same,enhancement of DnaK binding to denatured luciferase,[1],about 30%
same,IC50,human Hsc70 (HSPA8),610 ± 50 nM
same,half-life,[2],< 3 min
same,stress response (Hsp72 levels),[3],did not induce a stress response
same,anti-tau activity in cells,[4],reduced phospho (p396/404) and total tau
same,decrease of pS396/404 tau level,"[4]; 30 μM, 24 hours",about 40%
same,decrease of total tau level,"[4]; 30 μM, 24 hours",about 60%
same,half-life,[5],2 to 4 min
same,half-life,[5]; figure legend,~4 min
same,"ATP turnover, Hlj1-stimulated ATPase activity",[6]; Ssa1 plus Hlj1,partially inhibited
same,intrinsic ATPase activity of Ssa1,[6]; without Hlj1,minimal effect
same,solubility in saline or 10% DMSO/saline,[7],not soluble; also recorded: only marginally soluble
